# Test results from US20100298141A1, “SUBSTITUTED PYRIDINE N-OXIDE HERBICIDES” (E. I. DU PONT DE NEMOURS AND COMPANY, priority 2007, published 2010).
# Columns and labels:
# morningglory = test: Test C pre-/postemergence test; assay type: in vivo, Ipomoea coccinea
# Procedure, shortened: (§1)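 Test chemicals were formulated with surfactant in a non-phytotoxic solvent and sprayed both on freshly planted seeds (preemergence) and on 1- to 4-leaf plants of 2–18 cm (postemergence). Flooded-paddy pots received compound directly into 3 cm of standing water, maintained for the test.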
# crabgrass = test: Test C pre-/postemergence test; assay type: in vivo, Digitaria sanguinalis
# Procedure, shortened: as §1
# giant foxtail [1] = test: Test A pre-/postemergence greenhouse test; assay type: in vivo, Setaria faberi; conditions: for Plant response rating, Foxtail, Giant: 0 to 100 scale where 0 is no effect and 100 is complete control; for Foxtail, Giant plant response rating: 0 to 100 scale
# Procedure, shortened: (§2)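 Planting was into mixed loam soil and sand; preemergence treatment followed as a directed soil spray. Concurrently, emerged plants (one- to two-leaf, 2–10 cm) received postemergence applications of identically formulated compound (non-phytotoxic solvent, surfactant). After approximately ten days under greenhouse conditions, injury was judged by eye against untreated plants.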
# lambsquarters = test: Test C pre-/postemergence test; assay type: in vivo, Chenopodium album
# Procedure, shortened: as §1
# Surinam grass = test: Test C pre-/postemergence test; assay type: in vivo, Brachiaria decumbens
# Procedure, shortened: as §1
# soybean = test: Test C pre-/postemergence test; assay type: in vivo, Glycine max
# Procedure, shortened: as §1
# bermudagrass = test: Test C pre-/postemergence test; assay type: in vivo, Cynodon dactylon
# Procedure, shortened: as §1
# corn = test: Test A pre-/postemergence greenhouse test; assay type: in vivo, Zea mays; conditions: for Plant response rating, Corn: 0 to 100 scale where 0 is no effect and 100 is complete control; for Corn plant response rating: 0 to 100 scale
# Procedure, shortened: as §2
# catchweed bedstraw = test: Test C pre-/postemergence test; assay type: in vivo, Galium aparine
# Procedure, shortened: as §1
# pigweed = test: Test C pre-/postemergence test; assay type: in vivo, Amaranthus retroflexus
# Procedure, shortened: as §1
# rice = test: Test C flooded paddy test; assay type: in vivo, Oryza sativa; conditions: Flood
# Procedure, shortened: (§3)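 Flooded 3 cm over soil; compound into paddy water; depth kept constant. Greenhouse 13–15 d.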
# downy brome = test: Test C pre-/postemergence test; assay type: in vivo, Bromus tectorum
# Procedure, shortened: as §1
# barnyardgrass = test: Test C flooded paddy test; assay type: in vivo, Echinochloa crus-galli; conditions: Flood
# Procedure, shortened: as §3
# giant foxtail [2] = test: Test C pre-/postemergence test; assay type: in vivo, Setaria faberii
# Procedure, shortened: as §1
# johnsongrass = test: Test C pre-/postemergence test; assay type: in vivo, Sorghum halepense
# Procedure, shortened: as §1
# wheat = test: Test A pre-/postemergence greenhouse test; assay type: in vivo, Triticum aestivum; conditions: for Plant response rating, Wheat: 0 to 100 scale where 0 is no effect and 100 is complete control; for Wheat plant response rating: 0 to 100 scale
# Procedure, shortened: as §2
# velvetleaf = test: Test A pre-/postemergence greenhouse test; assay type: in vivo, Abutilon theophrasti; conditions: for Plant response rating, Velvetleaf: 0 to 100 scale where 0 is no effect and 100 is complete control; for Velvetleaf plant response rating: 0 to 100 scale
# Procedure, shortened: as §2
# [3] = 62 g ai/ha, Preemergence, scale 0 to 100
# [4] = 125 g ai/ha, preemergence, scale 0 (no effect) to 100 (complete control)
# [5] = Postemergence, 62 g ai/ha, scale 0 to 100, 0 no effect, 100 complete control
# [6] = Postemergence, 125 g ai/ha, scale 0 to 100, 0 no effect, 100 complete control
# [7] = Postemergence, 250 g ai/ha, scale 0 to 100, 0 no effect, 100 complete control
# [8] = Preemergence, 31 g ai/ha, scale 0 to 100 (0 no effect, 100 complete control)
# [9] = preemergence, 250 g ai/ha, scale 0 (no effect) to 100 (complete control)
# [10] = Postemergence, 500 g ai/ha, 0 is no effect, 100 is complete control
# [11] = Preemergence, 125 g ai/ha, 0 no effect, 100 complete control
# [12] = 62 g ai/ha, scale 0 to 100 (0 no effect, 100 complete control)
# [13] = 250 g ai/ha, scale 0 to 100, 0 no effect, 100 complete control, 13 to 15 days
smiles,measurement,setting,value
Cn1nc(C(F)(F)F)c(C[S+]([O-])c2ccc(Cl)c[n+]2[O-])c1OCC(F)(F)F (racemic) [Compound 62],Morningglory plant response rating,morningglory; [3],90
same,Morningglory plant response rating,morningglory; [4],100
same,"Plant response rating (0 to 100), Morningglory","morningglory; Postemergence, 31 g ai/ha",0
same,"Plant response rating, Morningglory",morningglory; [5],0
same,"Plant response rating, Morningglory",morningglory; [6],0
same,"Plant response rating, Morningglory",morningglory; [7],30
same,"Plant response rating, Morningglory",morningglory; [8],50
same,Morningglory plant response rating,morningglory; [9],100
same,"Crabgrass, Large plant response rating",crabgrass; [3],80
same,"Crabgrass, Large plant response rating",crabgrass; [4],100
same,"Plant response rating (0 to 100), Crabgrass, Large","crabgrass; Postemergence, 31 g ai/ha",0
same,"Plant response rating, Crabgrass, Large",crabgrass; [5],0
same,"Plant response rating, Crabgrass, Large",crabgrass; [6],0
same,"Plant response rating, Crabgrass, Large",crabgrass; [7],50
same,"Plant response rating, Crabgrass, Large",crabgrass; [8],60
same,"Crabgrass, Large plant response rating",crabgrass; [9],100
same,"Plant response rating, Foxtail, Giant","giant foxtail [1]; Postemergence, 125 g ai/ha",90
same,"Foxtail, Giant plant response rating",giant foxtail [1]; [10],90
same,"Foxtail, Giant plant response rating",giant foxtail [1]; [11],100
same,"Plant response rating, Foxtail, Giant","giant foxtail [1]; Preemergence, 500 g ai/ha",100
same,Lambsquarters plant response rating,lambsquarters; [3],100
same,Lambsquarters plant response rating,lambsquarters; [4],100
same,"Plant response rating (0 to 100), Lambsquarters","lambsquarters; Postemergence, 31 g ai/ha",0
same,"Plant response rating, Lambsquarters",lambsquarters; [5],0
same,"Plant response rating, Lambsquarters",lambsquarters; [6],0
same,"Plant response rating, Lambsquarters",lambsquarters; [7],0
same,"Plant response rating, Lambsquarters",lambsquarters; [8],100
same,Lambsquarters plant response rating,lambsquarters; [9],100
same,Surinam Grass plant response rating,Surinam grass; [3],98
same,Surinam Grass plant response rating,Surinam grass; [4],100
same,"Plant response rating (0 to 100), Surinam Grass","Surinam grass; Postemergence, 31 g ai/ha",0
same,"Plant response rating (0 to 100), Surinam Grass","Surinam grass; Postemergence, 62 g ai/ha",0
same,"Plant response rating, Surinam Grass",Surinam grass; [6],0
same,"Plant response rating, Surinam Grass",Surinam grass; [7],60
same,"Plant response rating, Surinam Grass",Surinam grass; [8],80
same,Surinam Grass plant response rating,Surinam grass; [9],100
same,Soybean plant response rating,soybean; [3],100
same,Soybean plant response rating,soybean; [4],100
same,"Plant response rating (0 to 100), Soybean","soybean; Postemergence, 31 g ai/ha",30
same,"Plant response rating (0 to 100), Soybean","soybean; Postemergence, 62 g ai/ha",50
same,"Plant response rating, Soybean",soybean; [6],60
same,"Plant response rating, Soybean",soybean; [8],70
same,Bermudagrass plant response rating,"bermudagrass; 62 g ai/ha, Preemergence, scale 0 to 100 (0 no effect, 100 complete control)",100
same,Bermudagrass plant response rating,bermudagrass; [4],100
same,"Plant response rating (0 to 100), Bermudagrass","bermudagrass; Postemergence, 31 g ai/ha",0
same,"Plant response rating, Bermudagrass",bermudagrass; [5],0
same,"Plant response rating, Bermudagrass",bermudagrass; [6],30
same,"Plant response rating, Bermudagrass",bermudagrass; [7],35
same,"Plant response rating, Bermudagrass",bermudagrass; [8],100
same,Bermudagrass plant response rating,bermudagrass; [9],100
same,"Plant response rating, Corn","corn; Postemergence, 125 g ai/ha",50
same,Corn plant response rating,corn; [10],70
same,Corn plant response rating,corn; [11],80
same,"Plant response rating, Corn","corn; Preemergence, 500 g ai/ha",90
same,Galium plant response rating,catchweed bedstraw; [3],100
same,Galium plant response rating,catchweed bedstraw; [4],100
same,"Plant response rating, Galium",catchweed bedstraw; [8],100
same,Galium plant response rating,catchweed bedstraw; [9],100
same,Pigweed plant response rating,pigweed; [3],100
same,Pigweed plant response rating,pigweed; [4],100
same,"Plant response rating (0 to 100), Pigweed","pigweed; Postemergence, 31 g ai/ha",0
same,"Plant response rating (0 to 100), Pigweed","pigweed; Postemergence, 62 g ai/ha",0
same,"Plant response rating, Pigweed",pigweed; [6],0
same,"Plant response rating, Pigweed",pigweed; [7],5
same,"Plant response rating, Pigweed",pigweed; [8],80
same,Pigweed plant response rating,pigweed; [9],100
same,"Plant response rating, Rice",rice; [12],60
same,"Plant response rating, Rice",rice; [13],90
same,"Bromegrass, Downy plant response rating",downy brome; [3],50
same,"Bromegrass, Downy plant response rating",downy brome; [4],70
same,"Plant response rating (0 to 100), Bromegrass, Downy","downy brome; Postemergence, 31 g ai/ha",0
same,"Plant response rating, Bromegrass, Downy",downy brome; [5],0
same,"Plant response rating, Bromegrass, Downy",downy brome; [6],45
same,"Plant response rating, Bromegrass, Downy",downy brome; [7],60
same,"Plant response rating, Bromegrass, Downy",downy brome; [8],50
same,"Bromegrass, Downy plant response rating",downy brome; [9],85
same,"Plant response rating, Barnyardgrass",barnyardgrass; [12],30
same,"Plant response rating, Barnyardgrass",barnyardgrass; [13],70
same,"Foxtail, Giant plant response rating",giant foxtail [2]; [3],100
same,"Foxtail, Giant plant response rating",giant foxtail [2]; [4],100
same,"Plant response rating (0 to 100), Foxtail, Giant","giant foxtail [2]; Postemergence, 31 g ai/ha",0
same,"Plant response rating, Foxtail, Giant",giant foxtail [2]; [5],0
same,"Plant response rating, Foxtail, Giant",giant foxtail [2]; [6],40
same,"Plant response rating, Foxtail, Giant",giant foxtail [2]; [7],70
same,"Plant response rating, Foxtail, Giant",giant foxtail [2]; [8],70
same,"Foxtail, Giant plant response rating",giant foxtail [2]; [9],100
same,Johnsongrass plant response rating,johnsongrass; [3],100
same,Johnsongrass plant response rating,johnsongrass; [4],100
same,"Plant response rating (0 to 100), Johnsongrass","johnsongrass; Postemergence, 31 g ai/ha",0
same,"Plant response rating, Johnsongrass",johnsongrass; [5],0
same,"Plant response rating, Johnsongrass",johnsongrass; [6],0
same,"Plant response rating, Johnsongrass",johnsongrass; [7],0
same,"Plant response rating, Johnsongrass",johnsongrass; [8],70
same,Johnsongrass plant response rating,johnsongrass; [9],100
same,"Plant response rating, Wheat","wheat; Postemergence, 125 g ai/ha",60
same,Wheat plant response rating,wheat; [10],60
same,Wheat plant response rating,wheat; [11],70
same,"Plant response rating, Wheat","wheat; Preemergence, 500 g ai/ha",100
same,"Plant response rating, Velvetleaf","velvetleaf; Postemergence, 125 g ai/ha",60
same,Velvetleaf plant response rating,velvetleaf; [10],90
same,Velvetleaf plant response rating,velvetleaf; [11],100
same,"Plant response rating, Velvetleaf","velvetleaf; Preemergence, 500 g ai/ha",100
